Results on 19 molecules are retold here after patent EP1203770A1 (priority 1992, dated 1994).

Molecules are shown by their SMILES. Where two headings read alike, the source gives them in different places.

The experiment deals with T1, HIV-1 protease (Human immunodeficiency virus type 1 group M subtype B, UniProt P04585).
T1 construct: The protease (or proteinase), consisting of only 99 amino acids, is among the smallest enzymes known
The experiment can be described thus: In vitro HIV protease inhibitory assay (HIV Protease FITC Assay). The experiment is classed as biochemical. The settings on record: for inhibition at 0.41 µM: HIV-1 Dose 0.410 uM; for inhibition at 0.41 µM / inhibition at 1.23 µM / inhibition at 3.7 µM / inhibition at 11 µM / inhibition at 33 µM / inhibition at 100 µM / inhibition at 1 µM / inhibition at 10 µM / inhibition at 0.123 µM / inhibition at 0.37 µM / inhibition at 1.1 µM / inhibition at 3.3 µM / inhibition at 30 µM: read-out: HIV-1 Protease % Inhib; for inhibition at 1.23 µM: HIV-1 Dose 1.230 uM; for inhibition at 3.7 µM: HIV-1 Dose 3.700 uM; for inhibition at 11 µM: HIV-1 Dose 11.000 uM; for inhibition at 33 µM: HIV-1 Dose 33.000 uM; for Ki: read-out: HIV-1 FITC Ki; for inhibition at 1 µM: HIV-1 Dose 1.000 uM. A digest of the protocol:
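Percent inhibition was read as fluorescence after avidin-bead capture and filtration separated FITC cleavage product from biotinylated substrate. Enzyme and substrate reacted 1 h, RT, dark, at pH 5.5 (0.1 M sodium acetate, 1.0 M NaCl, 0.05% NP-40).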

As to `CCC(c1ccccc1)c1c(O)c(Br)c(CCc2ccccc2)oc1=O` (stereo not shown) [Example 105, 5-Bromo-4-hydroxy-6-phenylethyl-3(1-phenyl-propyl)-pyran-2-one], the inhibition at 0.41 µM is 14.3%, the inhibition at 1.23 µM is 38.9%, the inhibition at 3.7 µM came out at 75.3% and the inhibition at 11 µM stood at 103%. In addition, the inhibition at 33 µM amounted to 110% and the Ki – broadly, a dissociation constant, usually derived from enzyme kinetics or from competition with a known ligand – came to 458 nM. Moreover, under “HIV-1 Dose 100.000 uM”, the inhibition at 100 µM is 108%.

On to `COCCOCCOCCc1c(C(CC2CC2)CC2CC2)oc(=O)c(C(c2ccccc2)C2CC2)c1O` (stereo not shown) [Example 112], for which the inhibition at 0.41 µM is under 10%, the inhibition at 1.23 µM was under 10%, the inhibition at 3.7 µM stood at 10.4% and the inhibition at 11 µM was 18.9%. The inhibition at 33 µM came to 37.1%. Under “HIV-1 Dose 100.000 uM”, the inhibition at 100 µM amounted to 46.5%.

In the case of `CCC(c1ccccc1)c1c(O)c(Br)c(CCC2CC2)oc1=O` (stereo not shown) [Example 100, 5-Bromo-6-(2-cyclopropyl-ethyl)-4-hydroxy-3-(1-phenyl-propyl)-pyran-2-one], the inhibition at 1 µM amounted to 38.3% and the Ki was found to be 480 nM. The inhibition at 10 µM (HIV-1 Dose 10.000 uM) came out at 94.6%. For the same molecule, the inhibition at 100 µM (HIV-1 Dose 100.000 uM) stood at 104%.

`CCCc1oc(=O)c(C(CC)c2ccccc2)c(O)c1Br` (stereo not shown) [Example 109, 5-Bromo-4-hydroxy-3-(1-phenyl-propyl)-6-propyl-pyran-2-one]: the inhibition at 0.41 µM amounted to 22.2%, the inhibition at 1.23 µM is 51.8%, the inhibition at 3.7 µM was 78.9% and the inhibition at 11 µM is 106%. In addition, the inhibition at 33 µM came to 105% and the inhibition constant (Ki) turned out to be 203 nM. Also, where the note is “HIV-1 Dose 100.000 uM”, the inhibition at 100 µM amounted to 108%.

On to `CCC(C1=C(O)CC2(CCCC2)OC1=O)c1ccccc1` (stereo not shown) [Example 130, 4-Hydroxy-3-(1-phenylpropyl)-1-oxa-spiro[5.4]-dec-3-en-2-one], for which, under “HIV-1 Dose 0.123 uM”, the inhibition at 0.123 µM is under 10%. Further, for the setting “HIV-1 Dose 0.370 uM”, the inhibition at 0.37 µM was under 10%. Besides, the inhibition at 1.1 µM (HIV-1 Dose 1.100 uM) is under 10%. Moreover, the inhibition at 3.3 µM (HIV-1 Dose 3.300 uM) is under 10%. Further, the inhibition at 10 µM (HIV-1 Dose 10.000 uM) was under 10%. For the setting “HIV-1 Dose 30.000 uM”, the inhibition at 30 µM was 13.1%.

`O=c1oc(CC2CCCC2)cc(O)c1C(c1ccccc1)C1CC1` (stereo not shown) [Example 143, 6-(Cyclopentylmethyl)-3-(cyclopropylphenylmethyl)-4-hydroxy-2H-pyran-2-one]: the inhibition at 0.123 µM (HIV-1 Dose 0.123 uM) was under 10%. Also, the inhibition at 0.37 µM (HIV-1 Dose 0.370 uM) is under 10%. Under “HIV-1 Dose 1.100 uM”, the inhibition at 1.1 µM came out at 25.1%. The inhibition at 3.3 µM (HIV-1 Dose 3.300 uM) was found to be 57.9%. For the setting “HIV-1 Dose 10.000 uM”, the inhibition at 10 µM was found to be 83.1%. Besides, for the setting “HIV-1 Dose 30.000 uM”, the inhibition at 30 µM worked out at 93.8%.

Take `O=c1oc(CCc2ccccc2)cc(O)c1C(C1CC1)C1CC1` [Example 82, 3-Dicyclopropylmethyl-4-hydroxy-6-phenethyl-pyran-2-one]: the inhibition at 1 µM worked out at 19.8%. The inhibition at 10 µM (HIV-1 Dose 10.000 uM) is 90.9%. In addition, where the note is “HIV-1 Dose 100.000 uM”, the inhibition at 100 µM was 106%.

On to `CCC(CCCl)c1cc(O)c(C(c2ccccc2)C2CC2)c(=O)o1` (stereo not shown) [Example 66, 6-(3-Chloro-1-ethyl-propyl)-3-(cyclopropyl-phenyl-methyl)-4-hydroxy-pyran-2-one], for which the inhibition constant (Ki) was found to be 53 nM. Also, for the setting “HIV-1 Dose 0.123 uM”, the inhibition at 0.123 µM was under 10%. Further, the inhibition at 0.37 µM (HIV-1 Dose 0.370 uM) was found to be 36%. The inhibition at 1.1 µM (HIV-1 Dose 1.100 uM) came to 75.3%. Further, the inhibition at 3.3 µM (HIV-1 Dose 3.300 uM) is 99.4%. Further, the inhibition at 10 µM (HIV-1 Dose 10.000 uM) was 102%. Also, the inhibition at 30 µM (HIV-1 Dose 30.000 uM) amounted to 108%.

Regarding `CCC(Cc1ccccc1)c1cc(O)c(C(c2cccc(NC(=O)Cc3cccnc3)c2)C2CC2)c(=O)o1` (stereo not drawn) [Example 248, 3-(α-Cyclopropyl-meta-(3-pyridylacetylamino)benzyl)-6-(α-ethylphenethyl)-4-hydroxy-2H-pyran-2-one], the inhibition constant Ki came to 61.7 nM. Also, where the note is “HIV-1 Dose 0.123 uM”, the inhibition at 0.123 µM was under 10%. Also, the inhibition at 0.37 µM (HIV-1 Dose 0.370 uM) came to 31.6%. Also, the inhibition at 1.1 µM (HIV-1 Dose 1.100 uM) was found to be 63.7%. Besides, the inhibition at 3.3 µM (HIV-1 Dose 3.300 uM) was 86.5%. For the same molecule, the inhibition at 10 µM (HIV-1 Dose 10.000 uM) worked out at 101%. In addition, for the setting “HIV-1 Dose 30.000 uM”, the inhibition at 30 µM turned out to be 99.2%.

For `CCCc1oc(=O)c(C(c2ccccc2)C2CC2)c(O)c1CCOCCOC` (stereo not shown) [Example 78, 3-(Cyclopropyl-phenyl-methyl)-4-hydroxy-5-[2-(2-methoxy-ethoxy)-ethyl]-6-propyl-pyran-2-one], the inhibition at 0.41 µM turned out to be 50.5%, the inhibition at 1.23 µM is 68.9%, the inhibition at 3.7 µM was found to be 93.2% and the inhibition at 11 µM came out at 101%. Besides, the inhibition at 33 µM came out at 107% and the Ki is 196 nM. Besides, the inhibition at 100 µM (HIV-1 Dose 100.000 uM) was 106%.

Turning to `CCC(CC(=O)OCc1ccccc1)c1cc(O)c(C(c2ccccc2)C2CC2)c(=O)o1` (stereo not drawn) [Example 132, 3-(Cyclopropylphenylmethyl)-β-ethyl-4-hydroxy-2-oxo-, phenylmethyl ester 2H-pyran-6-propanoic acid], the inhibition at 0.123 µM (HIV-1 Dose 0.123 uM) was under 10%. The inhibition at 0.37 µM (HIV-1 Dose 0.370 uM) was under 10%. Besides, for the setting “HIV-1 Dose 1.100 uM”, the inhibition at 1.1 µM amounted to 29.1%. Further, for the setting “HIV-1 Dose 3.300 uM”, the inhibition at 3.3 µM is 70.2%. Moreover, the inhibition at 10 µM (HIV-1 Dose 10.000 uM) is 87.6%. The inhibition at 30 µM (HIV-1 Dose 30.000 uM) turned out to be 110%.

As to `CCC(Cc1ccc(OC)cc1)c1cc(O)c(C(c2ccccc2)C2CC2)c(=O)o1` (stereo not drawn) [Example 163, 3-(α-cyclopropylbenzyl)-4-hydroxy-6-(α-ethyl-p-methoxyphenethyl)-2H-pyran-2-one], the inhibition constant Ki came to 172 nM. In addition, under “HIV-1 Dose 0.123 uM”, the inhibition at 0.123 µM was under 10%. Moreover, the inhibition at 0.37 µM (HIV-1 Dose 0.370 uM) came out at 30.8%. Further, the inhibition at 1.1 µM (HIV-1 Dose 1.100 uM) was 65.6%. Besides, the inhibition at 3.3 µM (HIV-1 Dose 3.300 uM) was 88.7%. Also, the inhibition at 10 µM (HIV-1 Dose 10.000 uM) came out at 101%. For the same molecule, where the note is “HIV-1 Dose 30.000 uM”, the inhibition at 30 µM came out at 98.4%.

Regarding `O=c1oc(C(Cc2ccccc2)Cc2ccccc2)cc(O)c1C(c1ccccc1)C1CC1` (stereo not drawn) [Example 23, 3-(α-cyclopropylbenzyl)-6-(α-benzylphenethyl)-4-hydroxy-2H-Pyran-2-one], the concentration for half-maximal inhibition (IC50) (usually the concentration that inhibits the measured activity by half) was determined as 3000 nM and the inhibition at 1 µM was under 10%. For the same molecule, the inhibition at 10 µM (HIV-1 Dose 10.000 uM) is 77.9%. Moreover, for the setting “HIV-1 Dose 100.000 uM”, the inhibition at 100 µM worked out at 87%.

`CC(C)C(CC1CCCOC1)c1cc(O)c(C(c2ccccc2)C2CC2)c(=O)o1` (stereo not shown) [Example 134, 3-(Cyclopropylphenylmethyl)-4-hydroxy-6-[2-methyl-1-[(tetrahydro-2H-pyran-3-yl)methyl]propyl]-2H-pyran-2-one]: the Ki is 24 nM. The inhibition at 0.123 µM (HIV-1 Dose 0.123 uM) is 21.1%. For the setting “HIV-1 Dose 0.370 uM”, the inhibition at 0.37 µM came out at 57.5%. For the same molecule, the inhibition at 1.1 µM (HIV-1 Dose 1.100 uM) was determined as 83.1%. Further, the inhibition at 3.3 µM (HIV-1 Dose 3.300 uM) turned out to be 99.7%. Besides, under “HIV-1 Dose 10.000 uM”, the inhibition at 10 µM was 111%. For the same molecule, the inhibition at 30 µM (HIV-1 Dose 30.000 uM) came out at 106%.

Turning to `O=c1oc(CCc2nnnn2C2CCCCC2)cc(O)c1C(c1ccccc1)C1CC1` (stereo not shown) [Example 119, 6-[2-(1-Cyclohexyl-1H-tetrazol-5-yl)-ethyl]-3-(cyclopropyl-phenyl-methyl)-4-hydroxy-2-one], where the note is “HIV-1 Dose 0.123 uM”, the inhibition at 0.123 µM is under 10%. For the setting “HIV-1 Dose 0.370 uM”, the inhibition at 0.37 µM is under 10%. For the same molecule, the inhibition at 1.1 µM (HIV-1 Dose 1.100 uM) is under 10%. Also, the inhibition at 3.3 µM (HIV-1 Dose 3.300 uM) is under 10%. For the same molecule, the inhibition at 10 µM (HIV-1 Dose 10.000 uM) worked out at 20.7%. Besides, the inhibition at 30 µM (HIV-1 Dose 30.000 uM) turned out to be 60.3%.

Regarding `CC(C)(C)c1nc(CCc2cc(O)c(C(c3ccccc3)C3CC3)c(=O)o2)no1` (stereo not shown) [Example 44, 6-(2-(5-Tert-butyl-(1,2,4)oxadiazol-3-yl)-ethyl)-3-(cyclopropyl-phenyl-methyl)-4-hydroxy-pyran-2-one], the inhibition at 0.41 µM was under 10%, the inhibition at 1.23 µM came out at 24.9%, the inhibition at 3.7 µM is 57.3% and the inhibition at 11 µM amounted to 84.3%. The inhibition at 33 µM was 106% and the Ki was found to be 1840 nM. The inhibition at 100 µM (HIV-1 Dose 100.000 uM) came out at 114%.

On to `CCC(c1ccccc1)c1cc(O)c(C(CC)c2ccccc2)c(=O)o1` (stereo not drawn) [Example 186, 3-α-Ethylbenzyl-6-α-ethylbenzyl-4-hydroxy-2H-pyran-2-one], for which the inhibition constant (Ki) came to 22.4 nM. Where the note is “HIV-1 Dose 0.123 uM”, the inhibition at 0.123 µM was under 10%. In addition, under “HIV-1 Dose 0.370 uM”, the inhibition at 0.37 µM was under 10%. Further, the inhibition at 1.1 µM (HIV-1 Dose 1.100 uM) was under 10%. The inhibition at 3.3 µM (HIV-1 Dose 3.300 uM) was 11%. For the same molecule, the inhibition at 10 µM (HIV-1 Dose 10.000 uM) was determined as 41.6%. For the same molecule, for the setting “HIV-1 Dose 30.000 uM”, the inhibition at 30 µM came out at 61.6%.

With `CCC(C1=C(O)CC2(CCCCCCC2)OC1=O)c1ccccc1` (stereo not shown) [Example 126, 4-Hydroxy-3-(1-phenylpropyl)-1-oxaspiro[5.7]tridec-3-en-2-one], the inhibition at 0.123 µM was under 10%, the inhibition at 0.37 µM was under 10%, the inhibition at 1.1 µM was 13.2% and the inhibition at 3.3 µM turned out to be 42.9%. For the same molecule, the inhibition at 10 µM stood at 66.8% and the inhibition at 30 µM is 81%.

On to `CCC(c1ccccc1)c1c(O)cc(CCc2ccccc2F)oc1=O` (stereo not drawn) [Example 7, 3-(α-ethylbenzyl)-6-(o-fluorophenethyl)-4-hydroxy-2H-Pyran-2-one], for which the concentration for half-maximal inhibition (IC50) worked out at 6400 nM and the inhibition at 1 µM was 14%. Further, the inhibition at 10 µM (HIV-1 Dose 10.000 uM) is 74.1%. In addition, where the note is “HIV-1 Dose 100.000 uM”, the “HIV-1 Protease % Inhib” value stood at 109% and the inhibition at 100 µM stood at 109%.
